In patent US20220378923A1, “BET DEGRADER” (KYOWA KIRIN CO., LTD., priority 2019, published 2022):

Tests used:
Assay type in all cases: cell-based, human
[1] = test system: MYC mRNA expression in SU-DHL-4 cells; experiment: Suppressive effect on MYC mRNA expression (Test Example 2); details: test compound 100 nmol/L, 6 hours, qRT-PCR corrected by ACTB, GAPDH; for inhibition at 0.1 µM: Homo sapiens, HPRT1, read-out: Suppression Rate of MYC mRNA Expression (%)
Procedure: The cells were passaged twice a week at a volume of 20-40 mL so as to maintain a cell concentration of 1×10^6 cells/mL or less. The cultured SU-DHL-4 cells were seeded at 6×10^5 cells/well in a transparent 6-well plate (Code No. 140675, Thermo Fisher Scientific). After seeding, the cells were precultured at 37° C. in a carbon dioxide gas incubator for 18 to 25 hours. […] At this time, the final concentration of DMSO was adjusted to be 0.1 vol %. After adding the test compound, the cells were cultured at 37° C. in a carbon dioxide gas incubator for 6 hours. Then, the cells were collected by centrifugation and used for extraction of mRNA. mRNA extraction from cells was performed using Maxwell® 16 LEV simplyRNA Purification Kits (Code No. AS1270, Promega). The mRNA recovery protocol was performed according to the manufacturer's recommended protocol attached to the kit. […] The cDNA conversion was performed, according to the manufacturer's recommended protocol attached to the kit, in 0.020 mL of the reaction solution, and GeneAmp® PCR System 9700 (Applied Biosystems) was used. The cDNA-converted sample was diluted 10-fold by adding 0.180 mL of RNase Free Water (Code No. 10977-023, Thermo Fisher Scientific) and used for quantitative real-time polymerase chain reaction (qRT-PCR). For the calibration curve of qRT-PCR, 0.08 mL of RNase Free Water was added to a cDNA sample using DMSO as a test compound for 5-fold dilution. Further, two 5-fold dilutions were prepared stepwise, and these three samples were used as the calibration curve samples. The following reagents were used for qRT-PCR: TaqMan Gene Expression Assays, Inventoried (Primer probe: Code No. 4331182, Thermo Fisher Scientific, Assay ID: (i) MYC: Hs00153408_m1, (ii) ACTB: Hs01060665_g1, (iii) GAPDH: Hs04420697_g1, (iv) HPRT1: […] Universal PCR Master Mix, no AmpEraseR UNG (Master Mix: Code No. 4367846, Thermo Fisher Scientific). Primer probe (0.001 mL), Master Mix (0.010 mL), water (0.004 mL) and the diluted cDNA sample (0.005 mL) were mixed, and qRT-PCR analysis was performed. For qRT-PCR analysis, QuantStudio 7 Flex (Thermo Fisher Scientific) or 7500 Fast Real-Time PCR (Applied Biosystems) was used to measure in Fast mode and analyze. […] Corrected MYC expression=A/B • A: MYC expression level • B: Geometric mean of expression levels of ACTB, GAPDH and HPRT1 Using the corrected values, the suppression rate of MYC expression for the wells to which the test compound was not added was calculated by the following formula. […] Corrected MYC expression level in a well containing test compound • D: Corrected MYC expression level in a well to which test compound was not added

[2] = test system: SU-DHL-4 cells; experiment: Inhibitory effect on cell viability in SU-DHL-4 cell line (Test Example 1); details: SU-DHL-4 cells, 72 hours, Cell Counting Kit-8; concentration showing 90% inhibition of cell viability; read-out: SU-DHL-4 Cell Viability Inhibition Rate IC90
How it was run: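 SU-DHL-4 cells were grown at 37° C. under 5% CO2 in RPMI1640 with 10 vol % heat-inactivated FBS plus penicillin/streptomycin, seeded and precultured for 18 to 25 hours, then exposed to test compound at 0.1 vol % DMSO for 72 hours. Viability was read with Cell Counting Kit-8 by absorbance at 450 nm.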

[3] = test system: DCAF16 KO SU-DHL-4 cells; experiment: Inhibitory effect on cell viability using SU-DHL-4 DCAF16 knock out (KO) cell line (Test Example 6)
Procedure: The human DLBCL cell line SU-DHL-4 was purchased from DSMZ. SU-DHL-4 was passaged using RPMI1640 medium containing 10 vol % FBS. After the Cas9 gene was introduced, the cells were cultured in the above medium containing 0.01 mg/mL blasticidin (InvivoGen, Cat No. ant-bl-1). After introduction of sgRNA, the cells were cultured in the above medium containing 0.0001 mg/mL puromycin dihydrochloride (SIGMA, Cat No. P9020-10 ML). The culture conditions were 37° C. and 5% CO2.
Edit-R Lentiviral hEF1α-Blast-Cas9 Nuclease Particles (Cat No. VCAS10126) was used as a lentivirus for expressing Cas9 in human cell lines. Three types of Edit-R Human DCAF16 Lentiviral sgRNA (Cat No. VSGH10142-246568260; DNA target sequence […] (SEQ ID NO: 1), Cat No. VSGH10142-246568262; DNA target sequence […] (SEQ ID NO: 2) and Cat No. VSGH10142-246568263; DNA target sequence […] (SEQ ID NO: 3)) were used as lentiviruses for introducing DCAF16 sgRNA. As a control, Edit-R Lentiviral sgRNA Non-targeting Control #1 (Cat No. VSGC10215) was used. All lentiviruses were purchased from Dharmacon and stored at −80° C. until use.
SU-DHL-4 was suspended at 4×10^5 cells/mL in RPMI 1640 without FBS, 0.25 mL of the suspension was added to a 24-well plate, and the cells were cultured overnight. The next day, 0.003 mL of virus particles of Edit-R Lentiviral hEF1α-Blast-Cas9 Nuclease Particles was added. After culturing in a CO2 incubator for 4 hours, RPMI 1640 containing 0.75 mL of 10 vol % FBS was added. After culturing in a CO2 incubator for about 48 hours, the medium was replaced with RPMI1640 containing 10 vol % FBS, and the cells were cultured in a CO2 incubator. Four days after infection, the medium was replaced with a medium containing 0.01 mg/mL blasticidin (InvivoGen, Cat No. ant-bl-1). Then, the cells were passaged once every 2 to 3 days and thus twice in total (that is, cultured for 1 week) to obtain SU-DHL-4/Cas9, which is a Cas9-introduced SU-DHL-4 cell line.
(6) sgRNA infection SU-DHL-4/Cas9 was suspended at 4×10^5 cells/mL in RPMI 1640 without FBS, 0.25 mL of the suspension was added to a 24-well plate, and the cells were cultured overnight. The next day, a total of 4 types of sgRNA virus particles, 1 type of Control and 3 types targeting DCAF16 were added to the respective wells by 0.03 mL. After culturing in a CO2 incubator for 5 hours, RPMI 1640 containing 0.75 mL of 10 vol % FBS was added.
After culturing in a CO2 incubator for about 48 hours, the medium was replaced with RPMI1640 containing 10 vol % FBS, and the cells were cultured in a CO2 incubator. Four days after infection, the medium was replaced with a medium supplemented with 0.01 mg/mL puromycin dihydrochloride (SIGMA, Cat No. P9020-10 ML). Then, the cells were passaged once or twice a week for 2 weeks, and a cell stock was prepared using CELLBANKER I plus (Takara Bio, Cat No. CB-021). Cell line stock was stored at −80° C. Using Edit-R Lentiviral sgRNA Non-targeting Control #1, the Negative Control sequence was introduced into the SU-DHL-4 cell line, which was referred to as SU-DHL-4 NC strain, and using Edit-R Human DCAF16 Lentiviral sgRNA, […] sequence (SEQ ID NO: 1) was introduced into the SU-DHL-4 cell line, which was referred to as SU-DHL-4 DCAF16 KO1 strain, […] sequence (SEQ ID NO: 2) was introduced into the SU-DHL-4 cell line, which was referred to as SU-DHL-4 DCAF16 KO2 strain, and […] sequence (SEQ ID NO: 3) was introduced into the SU-DHL-4 cell line, which was referred to as SU-DHL-4 DCAF16 KO 3 strain.
The cultured DCAF16 KO SU-DHL-4 cells were seeded at 2000 cells/well in a transparent 384-well plate (Code No. 781182, Greiner bio-one). After seeding, the cells were pre-cultured at 37° C. in a carbon dioxide gas incubator for 18 to 25 hours. […]

Row | SMILES | Suppression Rate of MYC mRNA Expression (%) ([1]; HPRT1) | IC90 [2] | inhibition at 0.1 µM [1] | Activity Attenuation Ratio ([3]; (SU-DHL-4 DCAF16 KO IC50)/(SU-DHL-4 WT IC50)) | IC50 ([3]; Homo sapiens, DCAF16 KO SU-DHL-4 cells, 72 hours, Cell Counting Kit-8, 50% inhibition of cell viability)
1 | CCC(=O)N1c2ccccc2[C@H](Nc2ccc(CCC(=O)NCC3(NC4CCC(N[C@@H]5C[C@H](C)N(C(=O)CC)c6ccccc65)CC4)COC3)cc2)C[C@@H]1C (stereo partly shown) [Compound 7h] | 97.5% | 5.47 nM |  |  | 
2 | CCC(=O)N1c2ccccc2[C@H](Nc2ccc(NC(=O)CCCC(=O)Nc3ccc(N[C@@H]4C[C@H](C)N(C(=O)CC)c5ccccc54)cc3)cc2)C[C@@H]1C (relative stereo) [Compound 4a, N^1,N^5-bis(4-{[(2S*,4R*)-2-Methyl-1-propionyl-1,2,3,4-tetrahydroquinolin-4-yl]amino}phenyl)glutaramide] |  |  | 98.4% | 361 | 75.8 nM
3 | CCC(=O)N1c2ccccc2[C@H](Nc2ccc(NC(=O)CNC(=O)C(F)=C3CCC(N[C@@H]4C[C@H](C)N(C(=O)CC)c5ccccc54)CC3)cc2)C[C@@H]1C (relative stereo) [Compound 15k, 2-Fluoro-2-(4-(((2S*,4R*)-2-methyl-1-propionyl-1,2,3,4-tetrahydroquinolin-4-yl)amino)cyclohexylidene)-N-(2-((4-(((2S,4R)-2-methyl-1-propionyl-1,2,3,4-tetrahydroquinolin-4-yl)amino)phenyl)amino)-2-oxoethyl)acetamide] |  |  | 97.4% |  | 
4 | CCC(=O)N1c2ccccc2[C@H](Nc2ccc(NC(=O)[C@H](C)NC(=O)c3ccc(N[C@@H]4C[C@H](C)N(C(=O)CC)c5ccccc54)cc3)cc2)C[C@@H]1C (relative stereo) [Compound 2d, 4-{[(2S,4R)-2-Methyl-1-propionyl-1,2,3,4-tetrahydroquinolin-4-yl]amino}-N-{(S)-1-[(4-{[(2S*,4R*)-2-methyl-1-propionyl-1,2,3,4-tetrahydroquinolin-4-yl]amino}phenyl)amino]-1-oxopropan-2-yl}benzamide] |  |  | 80% |  | 
